# Measured values from ChEMBL document CHEMBL3120141, “Discovery of (1R,6S)-5-[4-(1-cyclobutyl-piperidin-4-yloxy)-phenyl]-3,4-diaza-bicyclo[4.1.0]hept-4-en-2-one (R,S-4a): histamine H(3) receptor inverse agonist demonstrating potent cognitive enhancing and wake promoting activity” (Bioorg Med Chem Lett, 2014).
# Calls of active or inactive are those of the source. The calls are words filed in the database; no cut-off is given here.
# Key:
# Homo sapiens [1] = organism: Homo sapiens; experiment: Selectivity ratio for human histamine H3 receptor over human histamine H1 receptor
# Histamine H3 receptor [2] = target: T1, Histamine H3 receptor (Homo sapiens, UniProt Q9Y5N1); experiment: Displacement of [3H]NAMH from human histamine H3 receptor transfected in CHO cells; format: cell-based
# T1 sequence (Q9Y5N1 whole entry): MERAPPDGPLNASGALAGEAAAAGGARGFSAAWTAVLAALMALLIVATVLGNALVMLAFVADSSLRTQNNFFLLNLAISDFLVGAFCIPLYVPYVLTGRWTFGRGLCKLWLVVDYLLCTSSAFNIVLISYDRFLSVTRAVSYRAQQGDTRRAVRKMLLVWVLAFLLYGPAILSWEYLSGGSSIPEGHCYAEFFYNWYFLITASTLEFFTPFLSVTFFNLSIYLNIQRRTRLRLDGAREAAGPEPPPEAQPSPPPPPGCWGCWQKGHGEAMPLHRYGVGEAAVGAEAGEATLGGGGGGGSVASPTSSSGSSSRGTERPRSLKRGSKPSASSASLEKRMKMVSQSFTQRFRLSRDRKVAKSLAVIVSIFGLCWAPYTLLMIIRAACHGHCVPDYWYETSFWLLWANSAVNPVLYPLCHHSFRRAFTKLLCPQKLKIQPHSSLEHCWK
# Homo sapiens [3] = organism: Homo sapiens; experiment: Selectivity ratio for human histamine H3 receptor over human histamine H4 receptor
# Homo sapiens [4] = organism: Homo sapiens; experiment: Selectivity ratio for human histamine H3 receptor over human histamine H2 receptor
# Histamine H3 receptor [5] = target: Histamine H3 receptor (Rattus norvegicus, UniProt Q9QYN8); experiment: Displacement of [3H]NAMH from rat histamine H3 receptor transfected in CHO cells; format: cell-based
# Sequence of Histamine H3 receptor (Rattus norvegicus, UniProt Q9QYN8) (Q9QYN8 whole entry): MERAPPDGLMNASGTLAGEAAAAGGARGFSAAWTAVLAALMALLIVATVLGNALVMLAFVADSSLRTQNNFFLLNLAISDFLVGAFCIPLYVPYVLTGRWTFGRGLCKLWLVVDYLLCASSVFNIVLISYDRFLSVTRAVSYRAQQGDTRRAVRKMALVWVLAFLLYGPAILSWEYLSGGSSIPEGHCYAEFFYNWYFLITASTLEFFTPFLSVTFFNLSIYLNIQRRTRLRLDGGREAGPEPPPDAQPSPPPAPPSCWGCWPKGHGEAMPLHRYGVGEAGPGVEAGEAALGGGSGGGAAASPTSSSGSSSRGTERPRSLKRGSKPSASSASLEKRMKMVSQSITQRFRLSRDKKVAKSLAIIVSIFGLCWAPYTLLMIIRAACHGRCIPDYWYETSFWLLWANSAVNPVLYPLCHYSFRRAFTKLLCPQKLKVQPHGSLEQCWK
# [6] = Clearance in monkey at 1 mg/kg, iv; format: ADME, organism-based, Macaca mulatta; set-up: dose 1 mg/kg, route intravenous; details: rhesus monkey, in vivo
# [7] = Oral bioavailability in rat at 5 mg/kg; format: ADME, organism-based; details: in vivo
# Rattus norvegicus [8] = experiment: Wake promoting activity in EEG/EMG rat model assessed as cumulative wake time at 3 mg/kg, ip after 4 hrs (reference value: 86 +/- 7 mins); format: functional; details: route intraperitoneal
# [9] = Terminal half life in monkey at 1 mg/kg, iv; format: ADME, organism-based, Macaca mulatta; set-up: dose 1 mg/kg, route intravenous; details: rhesus monkey, in vivo, read-out: beta t1/2 (converted)
# Rattus norvegicus [10] = experiment: Wake promoting activity in EEG/EMG rat model assessed as cumulative wake time at 1 mg/kg, ip after 4 hrs (reference value: 86 +/- 7 mins); format: functional; details: route intraperitoneal
# [11] = AUC in dog at 3 mg/kg, po; format: ADME, organism-based, Canis lupus familiaris; set-up: dose 3 mg/kg, route oral; details: plasma
# Cytochrome P450 2C19 = Cytochrome P450 2C19 (Homo sapiens, UniProt P33261); experiment: Inhibition of CYP2C19 (unknown origin); format: ADME
# Sequence of Cytochrome P450 2C19 (P33261 whole entry): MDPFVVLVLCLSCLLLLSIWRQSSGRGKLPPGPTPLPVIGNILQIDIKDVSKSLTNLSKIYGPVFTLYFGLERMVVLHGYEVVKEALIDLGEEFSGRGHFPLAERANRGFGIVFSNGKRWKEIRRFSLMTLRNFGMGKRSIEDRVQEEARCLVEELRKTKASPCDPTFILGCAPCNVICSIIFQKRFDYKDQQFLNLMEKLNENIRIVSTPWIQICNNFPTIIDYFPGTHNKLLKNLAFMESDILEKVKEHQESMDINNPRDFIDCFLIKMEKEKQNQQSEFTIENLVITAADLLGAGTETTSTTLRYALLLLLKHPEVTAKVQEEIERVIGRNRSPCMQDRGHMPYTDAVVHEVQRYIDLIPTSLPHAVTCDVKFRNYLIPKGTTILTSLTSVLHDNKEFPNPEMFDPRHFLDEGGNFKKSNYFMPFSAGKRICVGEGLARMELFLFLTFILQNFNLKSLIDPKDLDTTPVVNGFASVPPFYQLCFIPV
# Cytochrome P450 3A4 = Cytochrome P450 3A4 (Homo sapiens, UniProt P08684); experiment: Inhibition of CYP3A4 (unknown origin); format: ADME
# Sequence of Cytochrome P450 3A4 (P08684 whole entry): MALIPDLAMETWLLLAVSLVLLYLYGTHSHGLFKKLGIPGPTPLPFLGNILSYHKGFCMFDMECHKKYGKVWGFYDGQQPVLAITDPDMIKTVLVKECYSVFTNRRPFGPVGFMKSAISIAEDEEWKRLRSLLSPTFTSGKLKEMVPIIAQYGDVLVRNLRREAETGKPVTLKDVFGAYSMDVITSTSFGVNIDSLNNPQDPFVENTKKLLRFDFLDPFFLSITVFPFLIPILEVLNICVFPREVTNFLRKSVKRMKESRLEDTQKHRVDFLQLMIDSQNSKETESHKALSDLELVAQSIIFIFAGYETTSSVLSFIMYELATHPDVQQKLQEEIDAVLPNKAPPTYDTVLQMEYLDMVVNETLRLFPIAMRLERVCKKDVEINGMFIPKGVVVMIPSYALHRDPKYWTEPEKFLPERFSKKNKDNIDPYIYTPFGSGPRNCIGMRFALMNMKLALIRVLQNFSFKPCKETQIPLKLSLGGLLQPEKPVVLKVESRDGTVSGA
# [12] = Half life in monkey liver microsomes; format: ADME, Macaca mulatta, Microsome; details: rhesus monkey
# [13] = Half life in mouse liver microsomes; format: ADME, Microsome
# [14] = AUC in monkey at 3 mg/kg, po; format: ADME, organism-based, Macaca mulatta; set-up: dose 3 mg/kg, route oral; details: rhesus monkey, plasma
# Rattus norvegicus [15] = experiment: Wake promoting activity in EEG/EMG rat model assessed as cumulative wake time at 10 mg/kg, ip after 1.5 hrs relative to vehicle-treated control; format: functional; details: route intraperitoneal
# Rattus norvegicus [16] = experiment: Toxicity in EEG/EMG rat model assessed as abnormal behavior at 1 to 30 mg/kg, ip; format: organism-based; set-up: dose 1-30 mg/kg, route intraperitoneal; details: in vivo
# [17] = Oral bioavailability in dog at 3 mg/kg; format: ADME, organism-based, Canis lupus familiaris; details: in vivo
# Cytochrome P450 2D6 = Cytochrome P450 2D6 (Homo sapiens, UniProt P10635); experiment: Inhibition of CYP2D6 (unknown origin); format: ADME
# Sequence of Cytochrome P450 2D6 (P10635 whole entry): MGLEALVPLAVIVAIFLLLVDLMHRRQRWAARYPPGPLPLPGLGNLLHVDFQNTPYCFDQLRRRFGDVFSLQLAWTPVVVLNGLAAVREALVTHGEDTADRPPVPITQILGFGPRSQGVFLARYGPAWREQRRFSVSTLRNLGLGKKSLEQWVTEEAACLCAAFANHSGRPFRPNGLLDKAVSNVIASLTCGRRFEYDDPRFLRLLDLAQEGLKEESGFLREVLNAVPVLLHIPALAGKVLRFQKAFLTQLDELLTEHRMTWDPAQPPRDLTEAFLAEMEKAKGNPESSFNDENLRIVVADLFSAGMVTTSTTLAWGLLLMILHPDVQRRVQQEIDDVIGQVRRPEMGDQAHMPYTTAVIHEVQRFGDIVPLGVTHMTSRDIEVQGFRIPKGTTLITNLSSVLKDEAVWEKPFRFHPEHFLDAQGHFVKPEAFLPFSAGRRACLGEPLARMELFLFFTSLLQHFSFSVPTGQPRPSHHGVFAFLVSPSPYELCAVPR
# Rattus norvegicus [18] = experiment: Toxicity in EEG/EMG rat model assessed as sleep rebound at 1 to 30 mg/kg, ip; format: organism-based; set-up: dose 1-30 mg/kg, route intraperitoneal; details: in vivo
# Rattus norvegicus [19] = experiment: Wake promoting activity in EEG/EMG rat model assessed as cumulative wake time at 10 mg/kg, ip after 4 hrs (reference value: 86 +/- 7 mins); format: functional; details: route intraperitoneal
# [20] = target: Histamine H2 receptor (Homo sapiens) (UniProt P25021); experiment: Inhibition of human histamine H2 receptor at 10 uM
# Sequence of Histamine H2 receptor (Homo sapiens) (P25021 whole entry): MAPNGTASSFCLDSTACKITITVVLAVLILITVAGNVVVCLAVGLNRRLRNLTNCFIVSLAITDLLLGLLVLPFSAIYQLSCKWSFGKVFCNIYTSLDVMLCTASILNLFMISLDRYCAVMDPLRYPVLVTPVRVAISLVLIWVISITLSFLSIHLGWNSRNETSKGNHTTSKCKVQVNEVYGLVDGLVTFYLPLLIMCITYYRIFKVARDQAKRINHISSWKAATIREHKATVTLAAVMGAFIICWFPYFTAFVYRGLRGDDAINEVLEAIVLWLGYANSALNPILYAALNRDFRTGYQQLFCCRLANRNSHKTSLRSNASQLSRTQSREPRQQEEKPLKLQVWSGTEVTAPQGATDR
# [21] = Volume of distribution at steady state in monkey at 1 mg/kg, iv; format: ADME, organism-based, Macaca mulatta; set-up: dose 1 mg/kg, route intravenous; details: rhesus monkey, in vivo, read-out: Vdss
# [22] = target: Histamine H4 receptor (Homo sapiens) (UniProt Q9H3N8); experiment: Inhibition of human histamine H4 receptor at 10 uM
# Sequence of Histamine H4 receptor (Homo sapiens) (Q9H3N8 whole entry): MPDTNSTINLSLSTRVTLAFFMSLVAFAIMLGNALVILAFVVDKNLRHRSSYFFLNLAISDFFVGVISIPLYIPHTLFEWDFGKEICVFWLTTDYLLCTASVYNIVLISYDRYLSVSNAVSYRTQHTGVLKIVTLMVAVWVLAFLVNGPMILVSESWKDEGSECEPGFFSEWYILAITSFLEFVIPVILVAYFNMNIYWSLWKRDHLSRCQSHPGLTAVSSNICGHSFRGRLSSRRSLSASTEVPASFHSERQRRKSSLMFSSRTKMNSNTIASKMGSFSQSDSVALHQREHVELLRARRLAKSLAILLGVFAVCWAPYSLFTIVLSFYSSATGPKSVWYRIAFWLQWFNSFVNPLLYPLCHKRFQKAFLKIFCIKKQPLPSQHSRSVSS
# [23] = AUC in rat at 5 mg/kg, po; format: ADME, organism-based, Plasma; set-up: dose 5 mg/kg, route oral; details: plasma
# [24] = Half life in dog liver microsomes; format: ADME, Canis lupus familiaris
# Rattus norvegicus [25] = experiment: Enhancement of short term memory in rat social recognition memory model assessed as decrease in investigation ratio at 0.03 to 0.3 mg/kg, po; format: functional, organism-based
# Cytochrome P450 1A2 = target: T2, Cytochrome P450 1A2 (Homo sapiens, UniProt P05177); experiment: Inhibition of CYP1A2 (unknown origin); format: ADME
# T2 sequence (P05177 whole entry): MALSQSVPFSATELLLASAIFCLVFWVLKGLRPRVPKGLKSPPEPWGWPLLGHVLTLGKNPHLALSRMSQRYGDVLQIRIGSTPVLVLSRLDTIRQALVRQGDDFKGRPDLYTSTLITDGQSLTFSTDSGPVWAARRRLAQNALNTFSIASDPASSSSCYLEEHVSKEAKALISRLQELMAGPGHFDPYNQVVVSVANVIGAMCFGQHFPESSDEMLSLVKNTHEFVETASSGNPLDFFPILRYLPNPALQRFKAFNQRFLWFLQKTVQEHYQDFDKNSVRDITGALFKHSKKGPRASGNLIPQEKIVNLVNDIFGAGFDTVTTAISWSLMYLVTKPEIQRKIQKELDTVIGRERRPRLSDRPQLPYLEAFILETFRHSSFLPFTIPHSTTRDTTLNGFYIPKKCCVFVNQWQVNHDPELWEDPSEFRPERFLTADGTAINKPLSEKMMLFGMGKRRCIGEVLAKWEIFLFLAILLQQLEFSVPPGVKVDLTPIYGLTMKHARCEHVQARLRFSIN
# [26] = Plasma protein binding in dog; format: ADME, cell-free, Canis lupus familiaris; details: read-out: PPB (converted)
# [27] = Cmax in monkey at 3 mg/kg, po; format: ADME, organism-based, Macaca mulatta; set-up: dose 3 mg/kg, route oral; details: rhesus monkey, in vivo
# Cytochrome P450 2C9 = Cytochrome P450 2C9 (Homo sapiens, UniProt P11712); experiment: Inhibition of CYP2C9 (unknown origin); format: ADME
# [28] = Cmax in rat at 5 mg/kg, po; format: ADME, organism-based; set-up: dose 5 mg/kg, route oral; details: in vivo
# [29] = Clearance in dog at 1 mg/kg, iv; format: ADME, organism-based, Canis lupus familiaris; set-up: dose 1 mg/kg, route intravenous; details: in vivo
# [30] = target: Voltage-gated inwardly rectifying potassium channel KCNH2 (Homo sapiens, UniProt Q12809); experiment: Inhibition of human ERG channel by patch clamp technique
# Sequence of Voltage-gated inwardly rectifying potassium channel KCNH2 (Q12809 whole entry): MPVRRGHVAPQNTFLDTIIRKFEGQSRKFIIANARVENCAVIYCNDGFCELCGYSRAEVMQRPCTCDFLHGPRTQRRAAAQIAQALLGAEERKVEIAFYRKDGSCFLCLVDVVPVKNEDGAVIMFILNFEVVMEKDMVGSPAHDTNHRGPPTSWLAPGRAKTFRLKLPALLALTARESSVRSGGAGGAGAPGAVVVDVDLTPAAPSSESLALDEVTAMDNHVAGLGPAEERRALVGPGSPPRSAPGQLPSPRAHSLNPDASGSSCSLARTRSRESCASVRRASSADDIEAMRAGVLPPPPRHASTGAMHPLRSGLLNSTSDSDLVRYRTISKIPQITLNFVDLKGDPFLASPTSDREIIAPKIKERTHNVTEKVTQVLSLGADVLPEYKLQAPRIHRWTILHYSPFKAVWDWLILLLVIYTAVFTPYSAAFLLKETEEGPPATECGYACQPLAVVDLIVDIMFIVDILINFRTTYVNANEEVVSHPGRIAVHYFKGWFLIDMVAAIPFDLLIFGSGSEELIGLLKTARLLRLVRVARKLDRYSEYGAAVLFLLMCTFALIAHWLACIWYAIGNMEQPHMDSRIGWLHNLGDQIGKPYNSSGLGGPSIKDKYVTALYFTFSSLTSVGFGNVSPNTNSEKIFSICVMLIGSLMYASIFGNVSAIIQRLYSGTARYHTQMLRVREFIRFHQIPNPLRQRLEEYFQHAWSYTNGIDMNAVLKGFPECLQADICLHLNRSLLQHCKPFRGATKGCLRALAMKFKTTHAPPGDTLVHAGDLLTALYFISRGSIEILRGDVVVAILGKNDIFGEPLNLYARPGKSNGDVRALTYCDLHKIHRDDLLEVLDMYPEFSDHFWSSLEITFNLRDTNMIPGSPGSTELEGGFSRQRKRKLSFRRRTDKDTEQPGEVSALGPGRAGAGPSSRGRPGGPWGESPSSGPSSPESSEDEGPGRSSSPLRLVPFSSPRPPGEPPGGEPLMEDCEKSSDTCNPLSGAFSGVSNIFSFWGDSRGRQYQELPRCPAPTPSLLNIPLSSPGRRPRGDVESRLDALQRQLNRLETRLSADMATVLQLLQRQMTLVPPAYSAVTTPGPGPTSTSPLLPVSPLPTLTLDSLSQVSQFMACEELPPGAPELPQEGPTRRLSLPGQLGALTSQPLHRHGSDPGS
# [31] = Plasma protein binding in rat; format: ADME, cell-free; details: read-out: PPB (converted)
# [32] = Apparent permeability across human Caco2 cells; format: ADME, cell-based; details: Caco-2
# Rattus norvegicus [33] = experiment: Wake promoting activity in ip dosed EEG/EMG rat model assessed as cumulative wake time after 4 hrs; format: functional, organism-based
# [34] = Ratio of drug uptake in brain to plasma in rat at 10 mg/kg, ip after 6 hrs; format: ADME, organism-based; set-up: dose 10 mg/kg, route intraperitoneal; details: read-out: BPR
# [35] = Solubility of the compound in water at pH 2; format: physicochemical
# [36] = Ratio of drug uptake in brain to plasma in dog at 5 mg/kg, po after 6 hrs; format: ADME, organism-based, Canis lupus familiaris; set-up: dose 5 mg/kg, route oral; details: read-out: BPR
# [37] = Clearance in rat at 1 mg/kg, iv; format: ADME, organism-based; set-up: dose 1 mg/kg, route intravenous; details: in vivo
# [38] = Half life in human liver microsomes; format: ADME
# [39] = Half life in rat liver microsomes; format: ADME
# Rattus norvegicus [40] = experiment: Toxicity in EEG/EMG rat model assessed as EEG activity at 1 to 30 mg/kg, ip; format: organism-based; set-up: dose 1-30 mg/kg, route intraperitoneal; details: in vivo
# [41] = Cmax in dog at 3 mg/kg, po; format: ADME, organism-based, Canis lupus familiaris; set-up: dose 3 mg/kg, route oral; details: in vivo
# Rattus norvegicus [42] = experiment: In vivo inhibition of histamine H3 receptor in ip dosed rat dipsogenia model assessed as inhibition of RAMH-induced dipsogenia; format: functional
# [43] = Volume of distribution at steady state in dog at 1 mg/kg, iv; format: ADME, organism-based, Canis lupus familiaris; set-up: dose 1 mg/kg, route intravenous; details: in vivo, read-out: Vdss
# Rattus norvegicus [44] = experiment: Wake promoting activity in EEG/EMG rat model assessed as cumulative wake time at 30 mg/kg, ip after 7.5 to 18 hrs relative to vehicle-treated control; format: functional; details: route intraperitoneal
# [45] = Plasma protein binding in human; format: ADME, cell-free; details: read-out: PPB (converted)
# [46] = Volume of distribution at steady state in rat at 1 mg/kg, iv; format: ADME, organism-based; set-up: dose 1 mg/kg, route intravenous; details: in vivo, read-out: Vdss
# [47] = Solubility of the compound in water at pH 7.4; format: physicochemical
# Rattus norvegicus [48] = experiment: Wake promoting activity in EEG/EMG rat model assessed as cumulative wake time at 30 mg/kg, ip after 1.5 hrs relative to vehicle-treated control; format: functional; details: route intraperitoneal
# [49] = Terminal half life in rat at 1 mg/kg, iv; format: ADME, organism-based; set-up: dose 1 mg/kg, route intravenous; details: in vivo, read-out: beta t1/2 (converted)
# Histamine H3 receptor [50] = target: T1, Histamine H3 receptor; experiment: Inverse agonist activity at human histamine H3 receptor by [35S]GTPgammaS binding assay; format: functional
# [51] = Oral bioavailability in monkey at 3 mg/kg; format: ADME, organism-based, Macaca mulatta; details: rhesus monkey, in vivo
# [52] = target: Histamine H1 receptor (Homo sapiens) (UniProt P35367); experiment: Inhibition of human histamine H1 receptor at 10 uM
# Sequence of Histamine H1 receptor (Homo sapiens) (P35367 whole entry): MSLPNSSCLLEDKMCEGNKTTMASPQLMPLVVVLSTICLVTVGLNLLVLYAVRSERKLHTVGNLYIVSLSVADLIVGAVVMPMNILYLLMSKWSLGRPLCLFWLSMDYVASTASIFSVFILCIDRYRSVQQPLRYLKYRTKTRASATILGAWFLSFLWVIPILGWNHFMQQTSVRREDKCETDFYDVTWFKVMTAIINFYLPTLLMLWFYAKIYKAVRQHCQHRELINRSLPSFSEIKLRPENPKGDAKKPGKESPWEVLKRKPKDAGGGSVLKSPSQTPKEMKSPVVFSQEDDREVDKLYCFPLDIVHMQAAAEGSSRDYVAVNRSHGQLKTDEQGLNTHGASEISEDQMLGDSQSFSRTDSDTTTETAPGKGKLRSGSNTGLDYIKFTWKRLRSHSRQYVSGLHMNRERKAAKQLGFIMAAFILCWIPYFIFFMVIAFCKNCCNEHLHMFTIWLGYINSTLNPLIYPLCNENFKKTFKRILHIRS
# Rattus norvegicus [53] = experiment: Wake promoting activity in EEG/EMG rat model assessed as cumulative wake time at 30 mg/kg, ip after 4 hrs (reference value: 86 +/- 7 mins); format: functional; details: route intraperitoneal
# [54] = Terminal half life in dog at 1 mg/kg, iv; format: ADME, organism-based, Canis lupus familiaris; set-up: dose 1 mg/kg, route intravenous; details: in vivo, read-out: beta t1/2 (converted)
smiles,measurement,setting,value
CN1N=C(c2ccc(OC3CCN(C4CCCC4)CC3)cc2)C2CC2C1=O (racemic),Selectivity ratio,Homo sapiens [1],> 1000
same,Ki,Histamine H3 receptor [2],3.6 nM
same,Selectivity ratio,Homo sapiens [3],> 1000
same,Selectivity ratio,Homo sapiens [4],> 1000
same,Ki,Histamine H3 receptor [5],5.7 nM
O=C1NN=C(c2ccc(OC3CCN(C4CCC4)CC3)cc2)[C@H]2C[C@@H]12,clearance,[6],8 mL/min/kg
same,bioavailability,[7],92%
same,Time,Rattus norvegicus [8],129 min
same,half-life,[9],8.6 h
same,Time,Rattus norvegicus [10],121 min
same,AUC,[11],2960 ng·h/mL
same,IC50,Cytochrome P450 2C19,> 30000 nM
same,IC50,Cytochrome P450 3A4,> 30000 nM
same,half-life,[12],> 0.667 h
same,half-life,[13],> 0.667 h
same,AUC,[14],7190 ng·h/mL
same,Activity,Rattus norvegicus [15],>90%
same,Activity,Rattus norvegicus [16],Non-toxic
same,bioavailability,[17],94%
same,IC50,Cytochrome P450 2D6,> 30000 nM
same,Ki,Histamine H3 receptor [2],3.8 nM
same,Activity,Rattus norvegicus [18],Non-toxic
same,Time,Rattus norvegicus [19],189 min
same,inhibition,[20],< 10%
same,Vd,[21],6 L/kg
same,inhibition,[22],< 10%
same,AUC,[23],8320 ng·h/mL
same,half-life,[24],> 0.667 h
same,Activity,Rattus norvegicus [25],Active
same,IC50,Cytochrome P450 1A2,> 30000 nM
same,fraction unbound,[26],0.23
same,Cmax,[27],645 ng/mL
same,IC50,Cytochrome P450 2C9,> 30000 nM
same,Cmax,[28],888 ng/mL
same,clearance,[29],16 mL/min/kg
same,IC50,[30],14000 nM
same,fraction unbound,[31],0.23
same,Papp,[32],16.4 ×10⁻⁶ cm/s
same,Activity,Rattus norvegicus [33],Dose-dependent effect
same,Kp at 6 h,[34],3.6
same,solubility,[35],> 1000 µg/mL
same,Kp at 6 h,[36],5.1
same,clearance,[37],17 mL/min/kg
same,half-life,[38],> 0.667 h
same,half-life,[39],> 0.667 h
same,Activity,Rattus norvegicus [40],Non-toxic
same,Cmax,[41],502 ng/mL
same,ED50,Rattus norvegicus [42],0.14 mg/kg
same,inhibition,Rattus norvegicus [42],Dose-dependent effect
same,Ki,Histamine H3 receptor [5],7.3 nM
same,Vd,[43],4.1 L/kg
same,Time,Rattus norvegicus [44],174 min
same,fraction unbound,[45],0.23
same,Vd,[46],3.7 L/kg
same,solubility,[47],800 µg/mL
same,Activity,Rattus norvegicus [48],90%
same,half-life,[49],2.6 h
same,EC50,Histamine H3 receptor [50],0.4 nM
same,bioavailability,[51],114%
same,inhibition,[52],< 10%
same,Time,Rattus norvegicus [53],217 min
same,half-life,[54],3 h
CCN1N=C(c2ccc(OC3CCN(C4CCC4)CC3)cc2)C2CC2C1=O (racemic),Selectivity ratio,Homo sapiens [1],> 1000
same,Ki,Histamine H3 receptor [2],4.5 nM
same,Selectivity ratio,Homo sapiens [3],> 1000
same,Selectivity ratio,Homo sapiens [4],> 1000
same,Ki,Histamine H3 receptor [5],8 nM
